The values below come from ChEMBL document CHEMBL3988442, “University of Dundee, Small-Polar-MMV Screening Library” (2021).

This assay has as its system Schistosoma mansoni. Description: High throughput screening of compounds against Schistosoma mansoni motility. The class given is functional. On the set-up: dose or concentration left out as unconfirmed.
On to `CCC(=O)N1CCC(c2nnc(Cn3cncn3)n2C2CC2)CC1`, for which the “Percent Effect” value is reported as -42.58%.

As to `Cc1nc(-c2ccsc2)ccc1C(=O)O`, the “Percent Effect” value is listed as -19.43%.

Regarding `COc1ccccc1CC(=O)NCCCN1CCCC1C(=O)N(C)C` (configuration not stated), the “Percent Effect” value is on record as -6.29%.

Regarding `Cc1cccc(CS(=O)(=O)NCC(O)Cc2ccccc2)c1` (configuration not stated), the “Percent Effect” value is 8.547%.

For the molecule `CCOc1cc(C)nc(N2CCN(Cc3nccn3C)CC2)n1`, the “Percent Effect” value is listed as -40.52%.

With `Cc1ccc(N2CCN(C(=O)COc3ccccc3)CC2)nn1`, the “Percent Effect” value is recorded as -51.88%.

With `CCc1ccccc1C(=O)N1CCN(S(C)(=O)=O)[C@@H](C)C1`, the “Percent Effect” value is -27.03%.

Turning to `CCCC(C)CN1CCC(n2cc(CCCO)nn2)CC1` (configuration not stated), the “Percent Effect” value is reported as -31.48%.

In the case of `Cc1noc(C)c1CCC(=O)N1CCN(CCn2cncn2)CC1`, the “Percent Effect” value is reported as -8.408%.

On to `O=C(Nc1ccnc(OC2CCOC2)c1)c1cc(F)ccc1F` (configuration not stated), for which the “Percent Effect” value was -26.29%.

For `CCC(O)CNC(=O)c1coc(COc2ccc3sc(C)nc3c2)n1` (configuration not stated), the “Percent Effect” value is -24.85%.

`CCN1CCN(S(=O)(=O)c2ncn(C)c2Cl)CC1`: the “Percent Effect” value is -72.02%.

On to `N#CC1(C(=O)Nc2ccc(OC(F)F)cc2)CCCC1`, for which the “Percent Effect” value is recorded as 6.367%.

For `c1cc2c(cc1C1CCCN1Cc1nnnn1C1CC1)OCCO2` (configuration not stated), the “Percent Effect” value was found to be 5.096%.

In the case of `COCc1ccccc1C(=O)NCCCN1CCCC1C(=O)N(C)C` (configuration not stated), the “Percent Effect” value was -41.89%.

In the case of `COc1nc2c(cc1C(=O)N1C[C@H](N)C[C@H]1C(=O)NC(C)C)CCC2`, the “Percent Effect” value turned out to be 37.99%.

As for `CN(CCCNc1cc(N2CCCC2CO)ncn1)S(C)(=O)=O` (configuration not stated), the “Percent Effect” value is listed as -51.96%.

For `CC1CN(C)c2ccccc2CN1C(=O)c1ccc[nH]1` (configuration not stated), the “Percent Effect” value is listed as -38.54%.

As for `CC(OCC(F)(F)F)C(=O)N1CCN(S(C)(=O)=O)CC1` (configuration not stated), the “Percent Effect” value is -54.53%.

In the case of `CS(=O)(=O)c1ccc(CNCC2CCN(CCO)CC2)cc1`, the “Percent Effect” value is given as -49.34%.

As to `Cc1nn(C)c(C)c1C1COCCN1C(=O)Cc1cccc(F)c1` (configuration not stated), the “Percent Effect” value is recorded as -11.98%.

For `CCOCCOc1ccccc1C(=O)N1CCCC(c2ncc[nH]2)C1` (configuration not stated), the “Percent Effect” value is on record as -53.5%.

In the case of `CN(C)C(=O)C1CCCN1CCCNC(=O)c1ccccc1F` (configuration not stated), the “Percent Effect” value is -45.94%.

With `CS(=O)(=O)c1ccccc1C(=O)NCC1Cc2ccccc2O1` (configuration not stated), the “Percent Effect” value is -25.81%.

With `CC(C)S(=O)(=O)NCC1CCCN(C(=O)c2cccnc2)C1` (configuration not stated), the “Percent Effect” value is -61.29%.

For `Cn1ncc2c(N3CCN(C(N)=O)CC3)nc(C3CCCC3)nc21`, the “Percent Effect” value is -18.38%.

As to `CC1(NC(=O)Cc2csc(C(C)(C)C)n2)CCS(=O)(=O)C1` (configuration not stated), the “Percent Effect” value is -25.94%.

Turning to `CC(C)CNC(=O)Nc1ccc(CN2CCOC2=O)cc1`, the “Percent Effect” value came out at 8.42%.

In the case of `COCc1ccccc1NC(=O)[C@@H]1CCCN1C(=O)c1ccco1`, the “Percent Effect” value is recorded as -9.117%.

For `N#Cc1ccc(OC2CCN(C(=O)c3ccc4c(c3)OCO4)CC2)nc1`, the “Percent Effect” value is reported as -46.44%.

Regarding `O=C(NCCN1CCC(c2cccs2)CC1)c1ccccc1C(F)(F)F`, the “Percent Effect” value is reported as 2.003%.

For `O=C(NCCCn1cccn1)C1(c2ccc(Br)cc2)CC1`, the “Percent Effect” value came out at 14.19%.

`Cc1ccc(F)c(C(=O)N2CCN(S(C)(=O)=O)[C@@H](C)C2)c1`: the “Percent Effect” value is -35.69%.

Take `CN(C)Cc1nnc(C2CCN(c3nccc(N)n3)CC2)n1C1CC1`: the “Percent Effect” value is -22.89%.

Take `CC(=O)N1CCC(C(=O)NCCN2CCC(C)CC2)CC1`: the “Percent Effect” value amounted to 14.05%.

Turning to `Cn1c(CNc2c(F)cccc2-n2cccn2)cc(=O)n(C)c1=O`, the “Percent Effect” value is -12.04%.

In the case of `CC(C)(C)C(=O)NCCn1ccc(-c2ccncc2)n1`, the “Percent Effect” value is recorded as -55.77%.

`CC(COc1ccccc1)NCc1nc(-c2cccnc2)no1` (configuration not stated): the “Percent Effect” value was -35.35%.

On to `CCc1ncc2c(n1)CN(Cc1nc(C)c(C)o1)CC2`, for which the “Percent Effect” value is given as -33.77%.

Regarding `O=S(=O)(c1cccnc1)N1CCN(CCn2ccnc2)CC1`, the “Percent Effect” value is -24.98%.

Take `Cc1cnccc1N1CCCN(C(=O)CCCS(N)(=O)=O)CC1`: the “Percent Effect” value is reported as -57.05%.

For the molecule `O=C(c1cn(-c2cc(N3CCOCC3)ncn2)cn1)N1CCSCC1`, the “Percent Effect” value is -64.76%.

With `CCc1nnc2n1CCN(C(=O)c1cnc3ccccc3n1)C2`, the “Percent Effect” value is reported as -44.56%.

`Cc1cc(C)n(CC2CCCN2C(=O)c2ccc3c(c2)nnn3C)n1` (configuration not stated): the “Percent Effect” value is listed as -59.08%.

For `Cc1nc(C(C)(C)NC(=O)Nc2ccccc2)no1`, the “Percent Effect” value is given as -55.91%.

For the molecule `Cn1nnc2cc(C(=O)N3CCCC3Cc3ccccc3)ccc21` (configuration not stated), the “Percent Effect” value is reported as -37.55%.

In the case of `COC(=O)c1cc(OCC2CCC2)cc(C(=O)N[C@@H]2CNCC[C@H]2O)c1`, the “Percent Effect” value is listed as -27.72%.

Take `O[C@H]1[C@H](n2cc(-c3cccnc3)nn2)c2ccccc2C12CCNCC2`: the “Percent Effect” value is -35.88%.

`COCCN1CCC(CN(CC2CCCO2)C(=O)CCNC(C)=O)CC1` (configuration not stated): the “Percent Effect” value was -20.27%.

For `O=C(NCC(F)F)N1CCC(n2ccc(C(F)(F)F)n2)CC1`, the “Percent Effect” value is listed as -27.04%.

Take `O=S(=O)(NCC1(O)CCOc2ccccc21)c1cccs1` (configuration not stated): the “Percent Effect” value is reported as -21.06%.

Take `Cc1nc(CN2CCCC2c2nc(C(C)C)no2)cs1` (configuration not stated): the “Percent Effect” value is -46.84%.

As for `O=C(NCCn1ccc(-c2ccccn2)n1)c1ccncc1`, the “Percent Effect” value is given as -46.65%.

For the molecule `CNC(=O)CS(=O)(=O)C1CCN(S(=O)(=O)c2ccccc2Br)CC1`, the “Percent Effect” value is -49.15%.

As to `c1ccc(C2CCCN2Cc2nnnn2C2CC2)cc1` (configuration not stated), the “Percent Effect” value is -33.61%.

`Cl.Cl.OC(CN1CCN(Cc2ccc(F)cc2)CC1)C1CC1` (configuration not stated): the “Percent Effect” value is -83.95%.

Consider `CN(Cc1ccccc1)CC1(O)CCCN(CC(C)(C)C)C1=O` (configuration not stated), for which the “Percent Effect” value is on record as 9.775%.

Regarding `CC(C)S(=O)(=O)NCC1CCCN(C(=O)c2ccc3c(c2)CCC3)C1` (configuration not stated), the “Percent Effect” value was -22.55%.

Take `O=C(CN1CCCC1Cn1cncn1)NC(C1CC1)C1CC1` (configuration not stated): the “Percent Effect” value is listed as -24.22%.

With `Cc1cc(C[C@@H]2COC[C@@H]2NC(=O)CN2CCCC2)on1`, the “Percent Effect” value is -45.11%.

Regarding `CSCC(=O)N1C[C@H]2CC[C@@H]1CN(Cc1ccccc1)C2`, the “Percent Effect” value is reported as 13.06%.

Consider `CC(C)c1n[nH]c(C2CN(C(=O)CCCn3cccn3)CCO2)n1` (configuration not stated), for which the “Percent Effect” value worked out at 21.88%.

With `CCCNC(=O)Cn1nc(C(C)C)c2cnn(C(C)(C)C)c2c1=O`, the “Percent Effect” value is recorded as -27.62%.

On to `O=C(CCc1nccs1)N1CCCC(N2CCNC2=O)C1` (configuration not stated), for which the “Percent Effect” value is given as -31.05%.

`O=C(NCC1CCN(C(=O)c2ccoc2)CC1)c1ccccc1Br`: the “Percent Effect” value is -0.2634%.

Consider `CC(CNC(=O)Nc1ccc(N(C)C)nc1)Cn1cccn1` (configuration not stated), for which the “Percent Effect” value was -28.69%.

In the case of `CC(NC(=O)N(C)Cc1ccncc1)c1nncn1C` (configuration not stated), the “Percent Effect” value is on record as -16.24%.

With `CS(=O)(=O)NCCNC(=O)C1(c2cccc(Cl)c2)CC1`, the “Percent Effect” value amounted to 21.58%.

As to `CCc1cc(NC2CCN(S(C)(=O)=O)CC2)n2nc(C)c(C)c2n1`, the “Percent Effect” value is on record as -49.44%.

For `CC(C)NC(=O)c1nnn(-c2cccc(C(F)(F)F)c2)c1N`, the “Percent Effect” value came out at 32.01%.

Consider `Cc1cn(-c2ccccc2)nc1NS(=O)(=O)c1cc(C(=O)O)cs1`, for which the “Percent Effect” value is -15.39%.

With `Cc1nc(CC(=O)N2CCC[C@H]2c2nc(C(C)C)no2)cs1`, the “Percent Effect” value came to 11.66%.

`O=C(CCCc1cn[nH]c1)N1CCOCC(O)C1` (configuration not stated): the “Percent Effect” value is given as -19.59%.

Consider `Cn1cnc(S(=O)(=O)N2CCCC2)c1Cl`, for which the “Percent Effect” value was -11.59%.

As for `CC(=O)NCCN1CCC(c2cccs2)CC1`, the “Percent Effect” value was -65.41%.

Regarding `COc1cccc(N2CCN(Cc3ccc(NC(C)=O)cc3)CC2=O)c1`, the “Percent Effect” value was -11.44%.

`Cc1ccnc(OCC(=O)N2CCC(C(N)=O)CC2)n1`: the “Percent Effect” value is given as -71.31%.

For `Cc1cc(NC(=O)CN2CCCC2c2noc(C3CC3)n2)no1` (configuration not stated), the “Percent Effect” value is listed as -30.12%.

Consider `O=C(CCc1ccc(=O)[nH]n1)N1CCCC(COc2ccc(F)cc2)C1` (configuration not stated), for which the “Percent Effect” value came to 4.924%.

As for `O=C(c1cccnc1)N1C[C@@H]2CC[C@H](C1)N(Cc1cc(F)ccc1F)C2`, the “Percent Effect” value is on record as -34.82%.

For the molecule `CC[C@@]1(O)CCN(C(=O)c2ccc(-c3cccc(F)c3)cc2)C[C@H]1O`, the “Percent Effect” value is 16.9%.

As to `NC(=O)c1cccc(CC2CCN(C(=O)CCCN3CCOCC3)C2)c1` (configuration not stated), the “Percent Effect” value is -44.07%.

Regarding `CNC(=O)CS(=O)(=O)C1CCN(S(=O)(=O)C2CC2)CC1`, the “Percent Effect” value is reported as 7.856%.

On to `COc1ccc(CNC(=O)NCC2CCOC2)c(C(F)(F)F)c1` (configuration not stated), for which the “Percent Effect” value was -32.81%.

As for `CC(C)C(=O)N1CCN(C(=O)c2cc(C(C)C)on2)[C@H]2CS(=O)(=O)C[C@H]21`, the “Percent Effect” value is -39.14%.

`Oc1cc(CCC2CCCCN2)cc(-c2ccncc2)c1` (configuration not stated): the “Percent Effect” value amounted to 6.025%.

Take `NC(=O)COc1cccc(C(=O)Nc2cnc3n2CCCC3)c1`: the “Percent Effect” value is reported as -21.49%.

As for `O[C@H]1[C@H](n2cc(-c3ccccc3)nn2)c2ccccc2C12CCNCC2`, the “Percent Effect” value worked out at 3.648%.

Regarding `COCCCC1(CO)CCCN(CCc2ccccc2)C1` (configuration not stated), the “Percent Effect” value is on record as -47.32%.

Take `CS(=O)(=O)CCNC(=O)C1(c2cccc(Cl)c2)CCCCC1`: the “Percent Effect” value came to 34.87%.

Consider `CC(=O)Nc1cccc(C(=O)Nc2cnc3n2CCCC3)c1`, for which the “Percent Effect” value was -24.57%.

With `CNC(=O)CS(=O)(=O)C1CCN(S(=O)(=O)c2c(F)cccc2F)CC1`, the “Percent Effect” value is reported as -27.81%.

For the molecule `COC(=O)CN1CC(c2nc(Cc3ccccc3)no2)C1.O=C(O)C(=O)O`, the “Percent Effect” value is -0.4449%.

Regarding `O=C(Cc1ccc(O)c(Cl)c1)N1CCN(CC2CC2)[C@@H]2CS(=O)(=O)C[C@@H]21`, the “Percent Effect” value is given as -40.54%.

In the case of `Cc1nn(C)c(N(C)C)c1CNCC(O)COc1ccccc1.Cl` (configuration not stated), the “Percent Effect” value is recorded as -91.65%.

With `CN(C)C(=O)c1ccc2c(c1)N(C)C(CC(=O)NC(C)(C)CO)CO2` (configuration not stated), the “Percent Effect” value stood at 4.699%.

In the case of `Cc1cccc(C(=O)N2CCN(S(C)(=O)=O)[C@@H](C)C2)c1C`, the “Percent Effect” value is -56.44%.
